Source: PubChem BioAssay AID256 (DTP/NCI, 2004)
“And” between values parts separate entries of the source, which are not always exact repeats. Identical values can stand only once. Toxic doses and inconclusive results are not listed.

Test system: CD2F1 mice, L1210 leukemia ip, survival T/C
Assay: NCI In Vivo Anticancer Drug Screen. Data for tumor model L1210 Leukemia (intraperitoneal) in CD2F1 (CDF1) mice
Conditions: higher = longer survival
Method in brief: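 Tumor-bearing mice (transplanted tumor) were split into treated and vehicle control groups, and the measured endpoint of each treated group was divided by that of its vehicle controls.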

O=C1NC(=O)C2C3C=CC(C12)C1C2C(=O)NC(=O)C2C31 (stereo not drawn)
T/C (endpoint: mean survival time, dose: 12.5 mg/kg/injection, schedule: Q01DX009 (ip), vehicle: saline with Tween-80): 115 % of control | T/C (endpoint: mean survival time, dose: 12.5 mg/kg/injection, schedule: Q01DX009 (oral), vehicle: saline with Tween-80): 100 % of control | T/C (endpoint: mean survival time, dose: 25.0 mg/kg/injection, schedule: Q01DX009 (oral), vehicle: saline with Tween-80): 96 % of control | T/C (endpoint: mean survival time, dose: 50.0 mg/kg/injection, schedule: Q01DX009 (ip), vehicle: saline with Tween-80): 164 % of control | T/C (endpoint: mean survival time, dose: 50.0 mg/kg/injection, schedule: Q01DX009 (oral), vehicle: saline with Tween-80): 101 % of control | T/C (endpoint: mean survival time, dose: 100.0 mg/kg/injection, schedule: Q01DX009 (ip), vehicle: saline with Tween-80): 188 % of control | T/C (endpoint: mean survival time, dose: 100.0 mg/kg/injection, schedule: Q01DX009 (oral), vehicle: saline with Tween-80): 104 % of control | T/C (endpoint: mean survival time, dose: 200.0 mg/kg/injection, schedule: Q01DX009 (oral), vehicle: saline with Tween-80): 101 % of control | T/C (endpoint: mean survival time, dose: 400.0 mg/kg/injection, schedule: Q01DX009 (oral), vehicle: saline with Tween-80): 111 % of control | T/C (endpoint: median survival time, dose: 2.6 mg/kg/injection, schedule: Q03HX024 (ip), vehicle: clinical formulation): 110 % of control | T/C (endpoint: median survival time, dose: 3.12 mg/kg/injection, schedule: Q01DX009 (ip), vehicle: clinical formulation): 106 % of control | T/C (endpoint: median survival time, dose: 3.12 mg/kg/injection, schedule: Q01DX009 (ip), vehicle: saline with Tween-80): 108 % of control | T/C (endpoint: median survival time, dose: 6.0 mg/kg/injection, schedule: Q03HX027 (ip), vehicle: saline): 112 % of control | T/C (endpoint: median survival time, dose: 6.25 mg/kg/injection, schedule: Q01DX009 (ip), vehicle: clinical formulation): 108 % of control | T/C (endpoint: median survival time, dose: 6.9 mg/kg/injection, schedule: Q01DX009 (ip), vehicle: clinical formulation): 102 % of control | T/C (endpoint: median survival time, dose: 7.8 mg/kg/injection, schedule: Q03HX008 (ip), vehicle: clinical formulation): 162 % of control | T/C (endpoint: median survival time, dose: 10.4 mg/kg/injection, schedule: Q03HX024 (ip), vehicle: clinical formulation): 162 % of control | T/C (endpoint: median survival time, dose: 11.8 mg/kg/injection, schedule: Q01DX009 (ip), vehicle: water): 108 % of control | T/C (endpoint: median survival time, dose: 12.5 mg/kg/injection, schedule: Q01DX005 (ip), vehicle: clinical formulation): 100 % of control | T/C (endpoint: median survival time, dose: 12.5 mg/kg/injection, schedule: Q01DX005 (ip), vehicle: other): 101 % of control and 106 % of control | T/C (endpoint: median survival time, dose: 12.5 mg/kg/injection, schedule: Q01DX005 (iv), vehicle: clinical formulation): 108 % of control | T/C (endpoint: median survival time, dose: 12.5 mg/kg/injection, schedule: Q01DX005 (iv), vehicle: other): 103 % of control and 104 % of control | T/C (endpoint: median survival time, dose: 12.5 mg/kg/injection, schedule: Q01DX009 (ip), vehicle: clinical formulation): 112 % of control | T/C (endpoint: median survival time, dose: 12.5 mg/kg/injection, schedule: Q01DX009 (ip), vehicle: saline with Tween-80): 116 % of control | T/C (endpoint: median survival time, dose: 12.5 mg/kg/injection, schedule: Q01DX009 (oral), vehicle: other): 100 % of control | T/C (endpoint: median survival time, dose: 13.8 mg/kg/injection, schedule: Q01DX009 (ip), vehicle: clinical formulation): 101 % of control | T/C (endpoint: median survival time, dose: 14.0 mg/kg/injection, schedule: Q01DX009 (ip), vehicle: water): 117 % of control | T/C (endpoint: median survival time, dose: 16.7 mg/kg/injection, schedule: Q03HX027 (ip), vehicle: saline): 152 % of control | T/C (endpoint: median survival time, dose: 18.0 mg/kg/injection, schedule: Q01DX009 (ip), vehicle: clinical formulation): 110 % of control | T/C (endpoint: median survival time, dose: 18.0 mg/kg/injection, schedule: Q01DX009 (ip), vehicle: saline): 103 % of control | T/C (endpoint: median survival time, dose: 18.0 mg/kg/injection, schedule: Q01DX009 (ip), vehicle: water): 113 % of control | T/C (endpoint: median survival time, dose: 19.7 mg/kg/injection, schedule: Q01DX009 (ip), vehicle: water): 107 % of control | T/C (endpoint: median survival time, dose: 20.8 mg/kg/injection, schedule: Q03HX024 (ip), vehicle: clinical formulation): 114 % of control | T/C (endpoint: median survival time, dose: 20.8 mg/kg/injection, schedule: Q04DX003 (ip), vehicle: clinical formulation): 121 % of control | T/C (endpoint: median survival time, dose: 23.3 mg/kg/injection, schedule: Q01DX009 (ip), vehicle: water): 150 % of control | T/C (endpoint: median survival time, dose: 25.0 mg/kg/injection, schedule: Q01DX001 (iv), vehicle: other): 100 % of control | T/C (endpoint: median survival time, dose: 25.0 mg/kg/injection, schedule: Q01DX005 (ip), vehicle: clinical formulation): 114 % of control | T/C (endpoint: median survival time, dose: 25.0 mg/kg/injection, schedule: Q01DX005 (ip), vehicle: other): 108 % of control | T/C (endpoint: median survival time, dose: 25.0 mg/kg/injection, schedule: Q01DX005 (iv), vehicle: other): 101 % of control and 109 % of control | T/C (endpoint: median survival time, dose: 25.0 mg/kg/injection, schedule: Q01DX005 (oral), vehicle: other): 98 % of control | T/C (endpoint: median survival time, dose: 25.0 mg/kg/injection, schedule: Q01DX009 (ip), vehicle: clinical formulation): 122 % of control | T/C (endpoint: median survival time, dose: 25.0 mg/kg/injection, schedule: Q01DX009 (oral), vehicle: other): 98 % of control | T/C (endpoint: median survival time, dose: 27.7 mg/kg/injection, schedule: Q01DX009 (ip), vehicle: clinical formulation): 154 % of control | T/C (endpoint: median survival time, dose: 27.8 mg/kg/injection, schedule: Q03HX027 (ip), vehicle: saline): 183 % of control | T/C (endpoint: median survival time, dose: 30.0 mg/kg/injection, schedule: Q01DX009 (ip), vehicle: clinical formulation): 166 % of control | T/C (endpoint: median survival time, dose: 30.0 mg/kg/injection, schedule: Q01DX009 (ip), vehicle: water): 186 % of control | T/C (endpoint: median survival time, dose: 32.9 mg/kg/injection, schedule: Q01DX009 (ip), vehicle: water): 226 % of control | T/C (endpoint: median survival time, dose: 38.9 mg/kg/injection, schedule: Q01DX009 (ip), vehicle: water): 200 % of control | T/C (endpoint: median survival time, dose: 46.3 mg/kg/injection, schedule: Q03HX027 (ip), vehicle: saline): 88 % of control | T/C (endpoint: median survival time, dose: 50.0 mg/kg/injection, schedule: Q01DX001 (iv), vehicle: other): 106 % of control | T/C (endpoint: median survival time, dose: 50.0 mg/kg/injection, schedule: Q01DX001 (oral), vehicle: other): 100 % of control | T/C (endpoint: median survival time, dose: 50.0 mg/kg/injection, schedule: Q01DX005 (ip), vehicle: clinical formulation): 198 % of control | T/C (endpoint: median survival time, dose: 50.0 mg/kg/injection, schedule: Q01DX005 (iv), vehicle: clinical formulation): 174 % of control | T/C (endpoint: median survival time, dose: 50.0 mg/kg/injection, schedule: Q01DX005 (iv), vehicle: other): 185 % of control | T/C (endpoint: median survival time, dose: 50.0 mg/kg/injection, schedule: Q01DX005 (oral), vehicle: other): 101 % of control | T/C (endpoint: median survival time, dose: 50.0 mg/kg/injection, schedule: Q01DX009 (ip), vehicle: clinical formulation): 176 % of control and 203 % of control | T/C (endpoint: median survival time, dose: 50.0 mg/kg/injection, schedule: Q01DX009 (ip), vehicle: saline with Tween-80): 246 % of control | T/C (endpoint: median survival time, dose: 50.0 mg/kg/injection, schedule: Q01DX009 (ip), vehicle: saline): 160 % of control | T/C (endpoint: median survival time, dose: 50.0 mg/kg/injection, schedule: Q01DX009 (ip), vehicle: water): 256 % of control | T/C (endpoint: median survival time, dose: 50.0 mg/kg/injection, schedule: Q01DX009 (oral), vehicle: other): 109 % of control | T/C (endpoint: median survival time, dose: 54.8 mg/kg/injection, schedule: Q01DX009 (ip), vehicle: water): 119 % of control | T/C (endpoint: median survival time, dose: 55.5 mg/kg/injection, schedule: Q01DX009 (ip), vehicle: clinical formulation): 284 % of control | T/C (endpoint: median survival time, dose: 55.5 mg/kg/injection, schedule: Q01DX009 (oral), vehicle: clinical formulation): 108 % of control | T/C (endpoint: median survival time, dose: 62.5 mg/kg/injection, schedule: Q01DX001 (iv), vehicle: clinical formulation): 151 % of control | T/C (endpoint: median survival time, dose: 64.8 mg/kg/injection, schedule: Q01DX009 (ip), vehicle: water): 268 % of control | T/C (endpoint: median survival time, dose: 83.3 mg/kg/injection, schedule: Q01DX009 (ip), vehicle: clinical formulation): 112 % of control | T/C (endpoint: median survival time, dose: 83.3 mg/kg/injection, schedule: Q01DX009 (ip), vehicle: saline): 106 % of control | T/C (endpoint: median survival time, dose: 83.3 mg/kg/injection, schedule: Q01DX009 (ip), vehicle: water): 97 % of control | T/C (endpoint: median survival time, dose: 83.3 mg/kg/injection, schedule: Q04DX003 (ip), vehicle: clinical formulation): 182 % of control | T/C (endpoint: median survival time, dose: 100.0 mg/kg/injection, schedule: Q01DX001 (iv), vehicle: other): 104 % of control | T/C (endpoint: median survival time, dose: 100.0 mg/kg/injection, schedule: Q01DX001 (oral), vehicle: other): 98 % of control | T/C (endpoint: median survival time, dose: 100.0 mg/kg/injection, schedule: Q01DX005 (iv), vehicle: other): 150 % of control and 195 % of control | T/C (endpoint: median survival time, dose: 100.0 mg/kg/injection, schedule: Q01DX005 (oral), vehicle: other): 100 % of control | T/C (endpoint: median survival time, dose: 100.0 mg/kg/injection, schedule: Q01DX009 (oral), vehicle: other): 114 % of control | T/C (endpoint: median survival time, dose: 111.1 mg/kg/injection, schedule: Q01DX009 (ip), vehicle: clinical formulation): 93 % of control | T/C (endpoint: median survival time, dose: 111.1 mg/kg/injection, schedule: Q01DX009 (oral), vehicle: clinical formulation): 121 % of control | T/C (endpoint: median survival time, dose: 125.0 mg/kg/injection, schedule: Q01DX001 (ip), vehicle: clinical formulation): 170 % of control | T/C (endpoint: median survival time, dose: 200.0 mg/kg/injection, schedule: Q01DX001 (iv), vehicle: other): 104 % of control | T/C (endpoint: median survival time, dose: 200.0 mg/kg/injection, schedule: Q01DX001 (oral), vehicle: other): 98 % of control | T/C (endpoint: median survival time, dose: 200.0 mg/kg/injection, schedule: Q01DX005 (ip), vehicle: other): 109 % of control | T/C (endpoint: median survival time, dose: 200.0 mg/kg/injection, schedule: Q01DX005 (iv), vehicle: other): 158 % of control | T/C (endpoint: median survival time, dose: 200.0 mg/kg/injection, schedule: Q01DX005 (oral), vehicle: other): 110 % of control | T/C (endpoint: median survival time, dose: 400.0 mg/kg/injection, schedule: Q01DX001 (iv), vehicle: other): 101 % of control | T/C (endpoint: median survival time, dose: 400.0 mg/kg/injection, schedule: Q01DX001 (oral), vehicle: other): 98 % of control | T/C (endpoint: median survival time, dose: 400.0 mg/kg/injection, schedule: Q01DX005 (oral), vehicle: other): 112 % of control | T/C (endpoint: median survival time, dose: 444.4 mg/kg/injection, schedule: Q01DX009 (oral), vehicle: clinical formulation): 158 % of control | T/C (endpoint: median survival time, dose: 800.0 mg/kg/injection, schedule: Q01DX001 (oral), vehicle: other): 102 % of control | T/C (endpoint: median survival time, dose: 888.8 mg/kg/injection, schedule: Q01DX009 (oral), vehicle: clinical formulation): 184 % of control
